Like-named read-outs stand apart in the source and are kept apart here.
Experiments:
Format in all cases: in vivo
intragastric pressure [1] = assay: Increase in intragastric pressure in the rat (gastric activity); conditions: conscious starved rats, oral, read-out: minimum dose for activity (increase in intragastric pressure), Dose mg/kg Orally
intragastric pressure [2] = assay: as above; conditions: sc, 40 min, conscious starved rats, subcutaneous, 40 minute period after administration, read-out: minimum dose for activity (increase in intragastric pressure), Dose mg/kg Subcutaneously
Procedure: Increase in intragastric pressure in the rat
Intragastric pressure changes were recorded from previously starved conscious but retrained rats using a saline filled catheter inserted into the lumen of the stomach via a permanent gastric fistula. The catheter was connected to a physiological pressure transducer and pressure changes recorded on a hot wire pen recorder. In each animal pre-dose period of 40 minutes was allowed to obtain a measure of spontaneous activity. An index of activity was obtained by measuring the average height of pressure waves during 10 minute periods. Values for 4 such periods were obtained during assessment of spontaneous activity and for the 40 minute period after the subcutaneous administration of the compounds. Students `t` test was applied to the difference in average values obtained for spontaneous and post-compound activity.

[3] = test system: apomorphine induced climbing; assay: Inhibition of apomorphine induced climbing in the mouse; conditions: apomorphine 1 mg/kg s.c.; for ED50: Mus musculus, sc, scored at 10, 20 and 30 minutes, read-out: Dose mg/kg ED50 (dose that inhibits the apomorphine response by 50%)
Procedure: Compounds were also tested for their ability to inhibit apomorphine induced climbing in the mouse. Inactivity in this test may be indicative of a low propensity to produce extra-pyramidal side-effects in man.
The method used for this test is as set out below:
Inhibition of apomorphine induced climbing in the mouse
The test is based on that described by Protais, P., Constantin, J. and Schwartz, J. C. (1976), Psychopharmacology, 50, 1-6.
Apomorphine 1 mg/kg s.c. induces mice to climb the wall of a wire cage (inverted food hopper--11×7.5×18 cm high). Mice acclimatised in their home cages in groups of 5 are placed under the hoppers immediately after the injection of apomorphine 1 mg/kg s.c. At 10, 20 and 30 minutes after injection climbing behaviour is scored. The mice are observed for 30 seconds and scored according to the position in which they spend the majority of time, score 0--four paws on floor of cage; score 1--fore paws only on walls; score 2--all paws on wall of cage.
The scores at all 3 times for each mouse are summed for apomorphine only and for apomorphine plus compound groups of mice.
Total scores are then calculated as the percentage inhibition of climbing as follows: [formula]
From graphical representation of the results ED50 values (the dose that inhibits the apomorphine response by 50%) are then obtained.

Compound	minimal effective dose (intragastric pressure [1])	minimal effective dose (intragastric pressure [2])	ED50 ([3]; route of compound not given)	Dose mg/kg ED50: Ia at stated dose (inhibition of apomorphine induced climbing) ([3]; at 25 mg/kg, route of compound not given)	Dose mg/kg ED50: Ia at stated dose (inhibition of apomorphine induced climbing) ([3]; at 10 mg/kg po)
COc1cc(N)c(Cl)cc1C(=O)N[C@H]1CCN2CCOC[C@@H]2C1 (relative stereo) [Example 2, (±) 4-Amino-5-chloro-2-methoxy-N-(8α-1-aza-6α-H-4-oxabicyclo [4,4,0]decyl)benzamide]	0.5 mg/kg	0.5 mg/kg	70 mg/kg		
COc1cc(N)c(Cl)cc1C(=O)N[C@H]1CCN2[C@H](COC[C@H]2c2ccccc2)C1 (relative stereo) [Example 12, (±) 4-Amino-5-chloro-2-methoxy-N-(8α-1-aza-2β-phenyl-6α-H-4-oxabicyclo[4,4,0]decyl)benzamide]			30 mg/kg		
COc1cc(N)c(Cl)cc1C(=O)N[C@H]1CCN2[C@H](COC[C@H]2C)C1 (relative stereo) [Example 6, (±) 4-Amino-5-chloro-2-methoxy-N-(8α-1-aza-2β-methyl-6α-H-4-oxabicyclo[4,4,0]decyl)benzamide]	0.5 mg/kg	0.2 mg/kg	40 mg/kg		
COc1cc(N)c(Cl)cc1C(=O)N[C@H]1CCN2CCOC[C@H]2C1 (relative stereo) [Example 4, (±) 4-Amino-5-chloro-2-methoxy-N-(8β-1-aza-6α-H-4-oxabicyclo [4,4,0]delcyl)benzamide]		1 mg/kg	30 mg/kg		
COc1cc(N)c(Cl)cc1C(=O)N[C@H]1CCN2CCSC[C@H]2C1 (relative stereo) [Example 10, (±) 4-Amino-5-chloro-2-methoxy-N-(8β-aza-6α-H-4-thiabicyclo [4,4,0]decyl)benzamide]		1 mg/kg			
COc1cc(N)c(Cl)cc1C(=O)N[C@H]1CCN2CC[S+]([O-])C[C@H]2C1 (mixture of isomers) [Example 18, (±) 4-Amino-5-chloro-2-methoxy-N-(8β-1-aza-6α-H-4-oxothiabicyclo[4,4,0]decyl)benzamide]		1 mg/kg			
COc1cc(N)c(Cl)cc1C(=O)N[C@H]1CCN2CCSC[C@@H]2C1 (relative stereo) [Example 8, (±) 4-Amino-5-chloro-2-methoxy-N-(8α-1-aza-6α-H-4-thiabicyclo [4,4 ,0]decyl)benzamide]		5 mg/kg		Ia at 25	
COc1cc(N)c(Cl)cc1C(=O)N[C@@H]1CCN2[C@H](COC[C@H]2c2ccccc2)C1 (relative stereo) [Example 14, (±) 4-Amino-5-chloro-2-methoxy-N-(8β-1-aza-2β-phenyl-6α-H-4-oxabicyclo[4,4,0]decyl)benzamide monohydrate]		1 mg/kg			Ia at 10 po
COc1cc(N)c(Cl)cc1C(=O)NC1CCN2CC[S+]([O-])CC2C1 (racemic) [Example 16, (±) 4-Amino-5-chloro-2-methoxy-N-(8α,β-1-aza-6α-H-4-oxothiabicyclo[4,4,0]decyl)benzamide]		5 mg/kg			Ia at 10 po
